According to article PMC3502340, “Agglutinating Activity and Structural Characterization of Scalarin, the Major Egg Protein of the Snail Pomacea scalaris (d’Orbigny, 1832)” (PLoS ONE, 2012):

Tested on: T1, scalarin (PsSC)
T1 construct: native, purified from newly laid egg clutches (ultracentrifugation, size exclusion); 380 kDa glycosylated carotenoprotein oligomer of 35, 28 and 24 kDa subunits
Assay: inhibition of rabbit erythrocyte hemagglutination (titre)
Type: cell-based, Pomacea scalaris
Conditions: 200000 µM, TBS pH 7.4, 37 °C, 1 h preincubation, 2% rabbit erythrocytes
From the text: inhibition of rabbit erythrocyte hemagglutination (titre) on scalarin (PsSC)

| SMILES | % Inhibition | % Inhibition (text prints 99.99%) |
| --- | --- | --- |
| CC(=O)N[C@H]1C(O)O[C@H](CO)[C@H](O)[C@@H]1O (stereo partly drawn) [N-acetyl-D-galactosamine] | 50.0% | – |
| N[C@H]1C(O)O[C@H](CO)[C@H](O)[C@@H]1O (stereo partly drawn) [galactosamine] | – | 99.9% |
| N[C@H]1C(O)O[C@H](CO)[C@@H](O)[C@@H]1O (stereo partly drawn) [glucosamine] | 99.6% | – |
